{"source": "paper PMC10388311", "about": "“Innovative Strategy toward Mutant CFTR Rescue in Cystic Fibrosis: Design and Synthesis of Thiadiazole Inhibitors of the E3 Ligase RNF5” (Journal of Medicinal Chemistry, 2023)"}
{"target": "F508del-CFTR in CFBE41o– cells (Homo sapiens, UniProt Q99942)", "sequence (Q99942 2-180)": "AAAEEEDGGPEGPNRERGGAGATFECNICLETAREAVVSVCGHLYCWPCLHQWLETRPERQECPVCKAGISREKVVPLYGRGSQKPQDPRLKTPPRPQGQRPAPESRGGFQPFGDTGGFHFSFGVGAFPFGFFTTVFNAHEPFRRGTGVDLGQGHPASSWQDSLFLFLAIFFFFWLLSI", "sequence (P13569 with tags, fused parts or gaps DEL508-508 partner)": "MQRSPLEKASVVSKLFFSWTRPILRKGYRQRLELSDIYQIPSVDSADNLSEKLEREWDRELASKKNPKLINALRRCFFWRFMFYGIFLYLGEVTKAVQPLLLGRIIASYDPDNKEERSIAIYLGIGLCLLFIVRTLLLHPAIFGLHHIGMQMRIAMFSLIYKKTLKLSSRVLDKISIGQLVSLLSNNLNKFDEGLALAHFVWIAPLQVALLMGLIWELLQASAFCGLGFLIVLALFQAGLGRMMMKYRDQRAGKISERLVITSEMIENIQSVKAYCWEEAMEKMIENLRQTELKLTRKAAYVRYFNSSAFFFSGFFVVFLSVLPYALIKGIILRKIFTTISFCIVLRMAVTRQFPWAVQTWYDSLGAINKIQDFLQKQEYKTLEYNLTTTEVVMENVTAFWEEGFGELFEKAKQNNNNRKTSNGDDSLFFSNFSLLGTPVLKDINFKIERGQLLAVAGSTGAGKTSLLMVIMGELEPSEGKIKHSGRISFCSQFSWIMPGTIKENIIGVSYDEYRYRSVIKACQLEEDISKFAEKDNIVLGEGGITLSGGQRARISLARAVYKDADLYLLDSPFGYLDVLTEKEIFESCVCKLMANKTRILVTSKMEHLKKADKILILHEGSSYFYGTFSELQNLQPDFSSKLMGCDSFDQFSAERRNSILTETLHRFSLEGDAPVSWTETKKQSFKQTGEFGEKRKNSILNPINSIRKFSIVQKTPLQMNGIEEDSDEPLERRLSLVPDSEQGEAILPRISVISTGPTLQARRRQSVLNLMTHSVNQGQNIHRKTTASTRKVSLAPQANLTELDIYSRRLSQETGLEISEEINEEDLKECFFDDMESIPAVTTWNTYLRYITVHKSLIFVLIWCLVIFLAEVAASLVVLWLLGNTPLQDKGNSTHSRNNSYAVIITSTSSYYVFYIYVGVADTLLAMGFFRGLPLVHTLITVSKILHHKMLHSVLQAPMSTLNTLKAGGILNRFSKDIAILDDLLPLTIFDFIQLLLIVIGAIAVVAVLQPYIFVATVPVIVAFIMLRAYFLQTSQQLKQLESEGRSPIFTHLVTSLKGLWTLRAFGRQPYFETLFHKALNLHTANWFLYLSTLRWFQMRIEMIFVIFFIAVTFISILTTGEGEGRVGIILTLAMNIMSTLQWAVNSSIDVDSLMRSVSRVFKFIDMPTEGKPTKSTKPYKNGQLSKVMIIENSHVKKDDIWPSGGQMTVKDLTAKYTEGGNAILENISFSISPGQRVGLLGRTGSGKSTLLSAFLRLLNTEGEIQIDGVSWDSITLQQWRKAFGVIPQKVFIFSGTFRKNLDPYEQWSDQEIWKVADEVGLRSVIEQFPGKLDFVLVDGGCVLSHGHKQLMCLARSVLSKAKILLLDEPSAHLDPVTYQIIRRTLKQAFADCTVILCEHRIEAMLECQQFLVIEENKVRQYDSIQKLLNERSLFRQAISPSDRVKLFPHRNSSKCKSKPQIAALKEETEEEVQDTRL", "assay": "HS-YFP microfluorimetric assay of F508del-CFTR rescue (corrector activity)", "type": "cell-based", "settings": "CFBE41o– cells co-expressing F508del-CFTR and HS-YFP, 24 h treatment, Figure 5", "procedure": "As a primary screen, the new thiadiazole derivatives 1–46 (Table 1) were tested for their ability to rescue the F508del-CFTR trafficking defect in CFBE41o^– cells, stably co-expressing F508del-CFTR and the HS-YFP (Figure 5). This cell line has been extensively used by our group, in combination with the microfluorimetric assay based on the HS-YFP, to identify and characterize many CFTR correctors.[39],[47] This assay relies on the hypothesis that RNF5 inhibition results in increased mutant CFTR processing and activity. Therefore, it can easily identify putative RNF5 inhibitors, but not other types of RNF5-binding compounds that could have no effect or have a negative effect on CFTR function, such as RNF5 activators (see analog-1). Thus, we opted for this assay as our primary aim was the identification of RNF5 inhibitors as a possible therapeutic strategy in CF. Twenty-four hours after seeding on 96-well plates, CFBE41o^– cells stably expressing F508del-CFTR and the HS-YFP were treated with test compounds at the desired concentration, one compound per well. Cells treated with vehicle alone (DMSO) and with corrector VX-809 (1 μM), respectively, served as negative and positive controls. At the time of the assay, cells were washed with PBS containing (in […]) 137 NaCl, 2.7 KCl, 8.1 Na2HPO4, 1.5 KH2PO4, 1 CaCl2, and 0.5 MgCl2. Cells were then incubated for 25 min with […] of PBS plus forskolin (20 μM) and VX-770 (1 μM) to maximally stimulate F508del-CFTR. Cells were then transferred to a microplate reader (FluoStar Galaxy; BMG Labtech, Offenburg, Germany) for CFTR activity determination. The plate reader was equipped with high-quality excitation (HQ500/20X: 500 ± 10 nm) and emission (HQ535/30M: 535 ± 15 nm) filters for YFP (Chroma Technology). Each assay comprised a continuous 14 s fluorescence reading and 2 s before and 12 s after injection of […] of an iodide-containing solution (PBS with Cl^– replaced by I^–; final I^– concentration […]). Data were normalized to the initial background-subtracted fluorescence. To determine the I^– influx rate, the final 11 s of the data for each well was fitted with an exponential function to extrapolate initial slope (dF/dt). Reproducibility of results was confirmed by performing three independent experiments. CFBE41o^– cells co-expressing F508del-CFTR and the HS-YFP were reverse-transfected with 50 nM (final concentration) siRNAs (Stealth, Life Technologies) in the presence of lipofectamine 2000 as a transfection agent. The following day, the medium was changed, and the cells were incubated at 37 °C for additional 24 h treated with test compounds at the desired concentration, prior to processing the cells for the YFP-based functional assay."}
{"smiles": "Cc1ns/c(=N\\C(=N\\c2ccccc2)c2ccccc2)n1Cc1ccc(O)cc1", "note": "[Compound 8, (E)-N-((Z)-4-(4-Hydroxybenzyl)-3-methyl-1,2,4-thiadiazol-5(4H)-ylidene)-N′-phenylbenzimidamide]", "F508del-CFTR corrector activity compared with inh-2 (CFTR activity, primary screen)": "reduced potency"}
{"smiles": "Cc1ccc(Cn2c(C)ns/c2=N\\C(=N\\c2ccccc2)c2ccccc2)cc1", "note": "[Compound 6, (E)-N-((Z)-3-Methyl-4-(4-methylbenzyl)-1,2,4-thiadiazol-5(4H)-ylidene)-N′-phenylbenzimidamide]", "F508del-CFTR corrector activity compared with inh-2 (CFTR activity, primary screen)": "maintained the activity unaltered"}
{"smiles": "Cc1ns/c(=N\\C(=N\\c2ccccc2)c2ccccc2)n1Cc1cccc(OC(C)C)c1", "note": "[Compound 18, (E)-N-((Z)-4-(3-Isopropoxybenzyl)-3-methyl-1,2,4-thiadiazol-5(4H)-ylidene)-N′-phenylbenzimidamide]", "F508del-CFTR corrector activity compared with inh-2 (CFTR activity, primary screen)": "decreased potency"}
{"smiles": "Cc1ns/c(=N\\C(=N\\c2ccccc2)c2ccccc2)n1Cc1cccc(N)c1", "note": "[Compound 20, (E)-N-((Z)-4-(3-Aminobenzyl)-3-methyl-1,2,4-thiadiazol-5(4H)-ylidene)-N′-phenylbenzimidamide]", "F508del-CFTR corrector activity compared with inh-2 (CFTR activity, primary screen)": "decreased potency"}
{"smiles": "c1ccc(Cn2ncs/c2=N\\C(=N\\c2ccccc2)c2ccccc2)cc1", "note": "[Compound 45, (E)-N-((Z)-3-Benzyl-1,3,4-thiadiazol-2(3H)-ylidene)-N′-phenylbenzimidamide]", "F508del-CFTR corrector activity compared with inh-2 (CFTR activity, primary screen)": "abolished any corrector activity"}
{"smiles": "Cc1ns/c(=N\\C(=N\\c2ccccc2)c2ccco2)n1Cc1ccccc1", "note": "[Compound 36, (E)-N-((Z)-4-Benzyl-3-methyl-1,2,4-thiadiazol-5(4H)-ylidene)-N′-phenylfuran-2-carboximidamide]", "F508del-CFTR corrector activity compared with inh-2 (CFTR activity, primary screen)": "drop of activity"}
{"smiles": "Cc1cccc(/N=C(/N=c2\\snc(C)n2Cc2ccccc2)c2ccccc2)c1", "note": "[Compound 37, (E)-N-((Z)-4-Benzyl-3-methyl-1,2,4-thiadiazol-5(4H)-ylidene)-N′-(m-tolyl)benzimidamide]", "F508del-CFTR corrector activity compared with inh-2 (CFTR activity, primary screen)": "inactive analogs"}
{"smiles": "Cc1ns/c(=N\\C(=N\\c2ccccc2)c2ccccc2)n1Cc1ccc(Cl)cc1", "note": "[Compound 10, (E)-N-((Z)-4-(4-Chlorobenzyl)-3-methyl-1,2,4-thiadiazol-5(4H)-ylidene)-N′-phenylbenzimidamide]", "F508del-CFTR corrector activity compared with inh-2 (CFTR activity, primary screen)": "maintained the activity unaltered"}
{"smiles": "CCOc1cccc(Cn2c(C)ns/c2=N\\C(=N\\c2ccccc2)c2ccccc2)c1", "note": "[Compound 19, (E)-N-((Z)-4-(3-Ethoxybenzyl)-3-methyl-1,2,4-thiadiazol-5(4H)-ylidene)-N′-phenylbenzimidamide]", "F508del-CFTR corrector activity compared with inh-2 (CFTR activity, primary screen)": "did not affect the activity"}
{"smiles": "Cc1ns/c(=N\\C(=N\\c2cccnc2)c2ccccc2)n1Cc1ccccc1", "note": "[Compound 41, (E)-N-((Z)-4-Benzyl-3-methyl-1,2,4-thiadiazol-5(4H)-ylidene)-N′-(pyridin-3-yl)benzimidamide]", "F508del-CFTR corrector activity compared with inh-2 (CFTR activity, primary screen)": "inactive analogs"}
{"smiles": "Cc1nn(Cc2ccccc2)/c(=N/C(=N/c2ccccc2)c2ccccc2)s1", "note": "[Compound 44, (E)-N-((Z)-3-Benzyl-5-methyl-1,3,4-thiadiazol-2(3H)-ylidene)-N′-phenylbenzimidamide]", "F508del-CFTR corrector activity compared with inh-2 (CFTR activity, primary screen)": "abolished any corrector activity"}
{"smiles": "COc1ccc(Cn2c(C)ns/c2=N\\C(=N\\c2ccccc2)c2ccccc2)cc1", "note": "[Compound 7, (E)-N-((Z)-4-(4-Methoxybenzyl)-3-methyl-1,2,4-thiadiazol-5(4H)-ylidene)-N′-phenylbenzimidamide]", "F508del-CFTR corrector activity compared with inh-2 (CFTR activity, primary screen)": "reduced potency"}
{"smiles": "Cc1ns/c(=N\\C(=N\\c2ccccc2)c2ccccc2)n1Cc1cccc(Cl)c1", "note": "[Compound 24, (E)-N-((Z)-4-(3-Chlorobenzyl)-3-methyl-1,2,4-thiadiazol-5(4H)-ylidene)-N′-phenylbenzimidamide]", "F508del-CFTR corrector activity compared with inh-2 (CFTR activity, primary screen)": "increased activity"}
{"smiles": "Cc1cccc(Cn2c(C)ns/c2=N\\C(=N\\c2ccccc2)c2ccccc2)c1", "note": "[Compound 14, (E)-N-((Z)-3-Methyl-4-(3-methylbenzyl)-1,2,4-thiadiazol-5(4H)-ylidene)-N′-phenylbenzimidamide]", "F508del-CFTR corrector activity compared with inh-2 (CFTR activity, primary screen)": "did not affect the activity"}
{"smiles": "Cc1ccccc1Cn1c(C)ns/c1=N\\C(=N\\c1ccccc1)c1ccccc1", "note": "[Compound 25, (E)-N-((Z)-3-Methyl-4-(2-methylbenzyl)-1,2,4-thiadiazol-5(4H)-ylidene)-N′-phenylbenzimidamide]", "F508del-CFTR corrector activity compared with inh-2 (CFTR activity, primary screen)": "slight increase in activity"}
{"smiles": "COc1ccccc1Cn1c(C)ns/c1=N\\C(=N\\c1ccccc1)c1ccccc1", "note": "[Compound 27, (E)-N-((Z)-4-(2-Methoxybenzyl)-3-methyl-1,2,4-thiadiazol-5(4H)-ylidene)-N′-phenylbenzimidamide]", "F508del-CFTR corrector activity compared with inh-2 (CFTR activity, primary screen)": "slight increase in activity"}
{"smiles": "Cc1ns/c(=N\\C(=N\\c2ccccc2)c2ccccc2)n1Cc1ccccc1C(F)(F)F", "note": "[Compound 26, (E)-N-((Z)-3-Methyl-4-(2-(trifluoromethyl)benzyl)-1,2,4-thiadiazol-5(4H)-ylidene)-N′-phenylbenzimidamide]", "F508del-CFTR corrector activity compared with inh-2 (CFTR activity, primary screen)": "detrimental effect"}
{"smiles": "Cc1ns/c(=N\\C(=N\\c2ccccc2)c2ccccc2)n1CCCc1ccccc1", "note": "[Compound 5, (E)-N-((Z)-3-Methyl-4-(3-phenylpropyl)-1,2,4-thiadiazol-5(4H)-ylidene)-N′-phenylbenzimidamide]", "F508del-CFTR corrector activity compared with inh-2 (CFTR activity, primary screen)": "devoid of significant F508del-CFTR corrector activity"}
{"smiles": "c1ccc(Cn2ccs/c2=N\\C(=N\\c2ccccc2)c2ccccc2)cc1", "note": "[Compound 46, (E)-N-((Z)-3-Benzylthiazol-2(3H)-ylidene)-N′-phenylbenzimidamide]", "F508del-CFTR corrector activity compared with inh-2 (CFTR activity, primary screen)": "abolished any corrector activity"}
{"smiles": "Cc1ns/c(=N\\C(=N\\c2ccccc2)c2ccccc2)n1Cc1ccccc1Cl", "note": "[Compound 28, (E)-N-((Z)-4-(2-Chlorobenzyl)-3-methyl-1,2,4-thiadiazol-5(4H)-ylidene)-N′-phenylbenzimidamide]", "F508del-CFTR corrector activity compared with inh-2 (CFTR activity, primary screen)": "comparable activity to the unsubstituted original hit inh-2"}
{"smiles": "Cc1ns/c(=N\\C(=N\\c2ccccc2)c2ccccc2)n1Cc1cccc(C(F)(F)F)c1", "note": "[Compound 15, (E)-N-((Z)-3-Methyl-4-(3-(trifluoromethyl)benzyl)-1,2,4-thiadiazol-5(4H)-ylidene)-N′-phenylbenzimidamide]", "F508del-CFTR corrector activity compared with inh-2 (CFTR activity, primary screen)": "decreased potency"}
{"smiles": "Cc1ns/c(=N\\C(=N\\C2CCCCC2)c2ccccc2)n1Cc1ccccc1", "note": "[Compound 39, (E)-N-((Z)-4-Benzyl-3-methyl-1,2,4-thiadiazol-5(4H)-ylidene)-N′-cyclohexylbenzimidamide]", "F508del-CFTR corrector activity compared with inh-2 (CFTR activity, primary screen)": "inactive analogs"}
{"smiles": "Cc1ns/c(=N\\C(=N\\c2ccccc2)c2ccccc2)n1Cc1cccc(F)c1", "note": "[Compound 23, (E)-N-((Z)-4-(3-Fluorobenzyl)-3-methyl-1,2,4-thiadiazol-5(4H)-ylidene)-N′-phenylbenzimidamide]", "F508del-CFTR corrector activity compared with inh-2 (CFTR activity, primary screen)": "did not affect the activity"}
{"smiles": "Cc1ns/c(=N\\C(=N\\c2ccccc2)c2ccccc2)n1Cc1cccc(N(C)C)c1", "note": "[Compound 22, (E)-N-((Z)-4-(3-(Dimethylamino)benzyl)-3-methyl-1,2,4-thiadiazol-5(4H)-ylidene)-N′-phenylbenzimidamide]", "F508del-CFTR corrector activity compared with inh-2 (CFTR activity, primary screen)": "did not affect the activity"}
{"smiles": "Cc1ns/c(=N\\C(=N\\c2ccccc2)c2ccccc2)n1CCc1ccccc1", "note": "[Compound 4, (E)-N-((Z)-3-Methyl-4-phenethyl-1,2,4-thiadiazol-5(4H)-ylidene)-N′-phenylbenzimidamide]", "F508del-CFTR corrector activity compared with inh-2 (CFTR activity, primary screen)": "devoid of significant F508del-CFTR corrector activity"}
{"smiles": "Cc1ns/c(=N\\C(=N\\c2ccccc2)c2ccccc2)n1Cc1ccc(N)cc1", "note": "[Compound 13, (E)-N-((Z)-4-(4-Aminobenzyl)-3-methyl-1,2,4-thiadiazol-5(4H)-ylidene)-N′-phenylbenzimidamide]", "F508del-CFTR corrector activity compared with inh-2 (CFTR activity, primary screen)": "reduced potency"}
{"smiles": "COCCc1ccnc(/N=c2\\snc(C)n2Cc2ccccc2)c1", "note": "[Compound 43, (Z)-4-Benzyl-N-(4-(2-methoxyethyl)pyridin-2-yl)-3-methyl-1,2,4-thiadiazol-5(4H)-imine]", "F508del-CFTR corrector activity compared with inh-2 (CFTR activity, primary screen)": "inactive compounds"}
